Like-named read-outs stand apart in the source and are kept apart here. Some results are limits rather than exact numbers.

In experiment [1] the target is His tagged PTPN2 (TC45) protein (Homo sapiens (Human), UniProt P17706). As to the kind of experiment: PTPN2 Mobility Shift Assay (MSA). Format: biochemical. The note with it: for Dihydrobenzofuran or Indoline x-fold>potency biochemical: x-fold versus corresponding chromane comparator, PTPN2 MSA. A digest of the protocol:
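His-tagged human PTPN2 (TC45), 0.5 nM, preincubated with compound (12-point, 1:3) 10 min at room temperature in HEPES pH 7.5 buffer with EDTA, EGTA, DTT. Dephosphorylation of 2 μM fluorescent phospho-insulin-receptor peptide over 10 min read by mobility shift; IC50 from % inhibition.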

The target in experiment [2] is His tagged full-length PTPN1 protein (Homo sapiens (Human), UniProt P18031). As to the kind of experiment: PTPN1 Mobility Shift Assay (MSA). Format: biochemical. The note with it: enzyme 0.5 nM, substrate 2 μM. An outline of the steps:
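Enzyme at 0.5 nM was preincubated with compound (12-point, 1:3 dilution) for 10 min at room temperature in pH 7.5 HEPES buffer with EDTA, EGTA and DTT. OG488-labelled phosphorylated insulin-receptor peptide at 2 µM was then added for 10 min. After quench, % substrate dephosphorylation was read by mobility shift, and IC50 came from % inhibition.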

For experiment [3], the system named is IFNγ-induced STAT1 phosphorylation (pSTAT1) in B16F10 cells. Put plainly: B16F10 Phospho-STAT1 HTRF proximal pharmacodynamic (PD) assay. Format: cell-based, murine. The following applies: for EC50: B16-F10, B16F10 cells; for Dihydrobenzofuran or Indoline x-fold>potency cellular: x-fold versus corresponding chromane comparator, B16F10 pSTAT1. A digest of the protocol: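 B16F10 cells in phenol red-free DMEM/10% FBS were dosed for 3 h at 37 °C in a 10-point, 3-fold series from 50 μM, then stimulated with 100 nM mouse IFNγ for 10 min and stopped with 3.3 μM staurosporine. pSTAT1 in lysates was measured by HTRF (665 nm emission), and EC50s were fitted from dose-response curves.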

The mark [4] stands for this setting: Table 3, dihydrobenzofuran or indoline compound (X = O or NH).
[5] abbreviates: 3 hours compound, 100 nM mouse IFNγ 10 minutes, read-out: B16F10 IFNγ Induced pSTAT1 EC50.
[6] abbreviates: Mus musculus, Table 3, dihydrobenzofuran or indoline compound (X = O or NH), read-out: pSTAT1 EC50.

His tagged full-length PTPN1 protein, sequence (P18031 whole entry): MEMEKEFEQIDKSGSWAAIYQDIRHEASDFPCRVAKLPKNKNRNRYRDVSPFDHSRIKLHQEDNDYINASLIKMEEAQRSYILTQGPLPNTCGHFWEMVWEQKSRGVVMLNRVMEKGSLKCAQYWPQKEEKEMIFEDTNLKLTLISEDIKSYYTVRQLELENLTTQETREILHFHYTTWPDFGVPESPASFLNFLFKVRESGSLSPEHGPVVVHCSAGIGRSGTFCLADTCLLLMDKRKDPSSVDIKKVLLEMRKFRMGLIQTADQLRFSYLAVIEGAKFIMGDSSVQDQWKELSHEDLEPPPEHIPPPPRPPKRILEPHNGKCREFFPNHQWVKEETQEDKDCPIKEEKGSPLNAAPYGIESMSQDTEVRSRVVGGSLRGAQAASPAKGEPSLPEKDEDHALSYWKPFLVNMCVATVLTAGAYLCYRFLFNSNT
His tagged PTPN2 (TC45) protein, sequence (P17706 other isoform, or with tags, fused parts or gaps): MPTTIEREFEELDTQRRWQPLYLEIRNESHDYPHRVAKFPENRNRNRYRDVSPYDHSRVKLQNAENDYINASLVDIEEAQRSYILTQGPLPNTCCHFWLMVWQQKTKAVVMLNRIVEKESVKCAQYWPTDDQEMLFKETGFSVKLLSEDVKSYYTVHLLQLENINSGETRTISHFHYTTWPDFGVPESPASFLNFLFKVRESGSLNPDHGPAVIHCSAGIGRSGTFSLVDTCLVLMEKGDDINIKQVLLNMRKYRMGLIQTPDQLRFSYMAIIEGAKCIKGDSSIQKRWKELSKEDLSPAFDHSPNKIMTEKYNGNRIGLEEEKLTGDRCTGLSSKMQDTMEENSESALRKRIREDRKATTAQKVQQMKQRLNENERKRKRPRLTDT

For orientation: IC50 means the concentration needed to halve the response being measured. By EC50 is commonly meant the concentration that produces a half-maximal response. With `CC(C)CCNC[C@H]1Cc2c(cc(O)c(N3CC(=O)NS3(=O)=O)c2F)N1` [Compound 139, 5-[(2R)-4-fluoro-6-hydroxy-2-{[(3-methylbutyl)amino]methyl}-2,3-dihydro-1H-indol-5-yl]-1λ^6,2,5-thiadiazolidine-1,1,3-trione], the IC50 in experiment [1] (setting [4]) is 0.0198 µM; in experiment [1] (enzyme 0.5 nM, substrate 2 μM), 0.01 to 0.1 µM; in experiment [2] it was 0.01 to 0.1 µM. Besides, the “Dihydrobenzofuran or Indoline x-fold>potency biochemical” value in experiment [1] was 0.8. The EC50 in experiment [3] (setting [5]) and in experiment [3] (setting [6]) was 1.56 µM in each case. Also, in experiment [3], the “Dihydrobenzofuran or Indoline x-fold>potency cellular” value is recorded as 4.5.

For `CC(C)(C)CCNC[C@H]1Cc2c(cc(O)c(N3CC(=O)NS3(=O)=O)c2F)N1` [Compound 153, 5-[(2R)-2-{[(3,3-dimethylbutyl)amino]methyl}-4-fluoro-6-hydroxy-2,3-dihydro-1H-indol-5-yl]-1λ^6,2,5-thiadiazolidine-1,1,3-trione], the IC50 lay in the range of 0.01 to 0.1 µM in experiment [1] (enzyme 0.5 nM, substrate 2 μM) and 0.01 to 0.1 µM in experiment [2]. Further, the EC50 in experiment [3] (setting [5]) came out at 2.01 µM.

With `COCCNC[C@H]1Cc2c(cc(O)c(N3CC(=O)NS3(=O)=O)c2F)N1` [Compound 136, 5-[(2R)-4-fluoro-6-hydroxy-2-{[(2-methoxyethyl)amino]methyl}-2,3-dihydro-1H-indol-5-yl]-1λ^6,2,5-thiadiazolidine-1,1,3-trione], the IC50 in experiment [1] (enzyme 0.5 nM, substrate 2 μM) is 0.01 to 0.1 µM; in experiment [2] it was 0.01 to 0.1 µM. For the same compound, the EC50 in experiment [3] (setting [5]) turned out to be 1.23 µM.

On to `O=C1CN(c2c(O)cc3c(c2F)C[C@H](CNCC2CC(c4ccccc4)C2)O3)S(=O)(=O)N1` (stereo partly drawn) [Compound 129, 5-[(2R)-4-fluoro-6-hydroxy-2-({[(3-phenylcyclobutyl)methyl]amino}methyl)-2,3-dihydro-1-benzofuran-5-yl]-1λ^6,2,5-thiadiazolidine-1,1,3-trione], for which the 50% inhibitory concentration (IC50) in experiment [1] (setting [4]) was 0.00251 µM; in experiment [1] (enzyme 0.5 nM, substrate 2 μM) it was under 0.01 µM; in experiment [2], 0.01 to 0.1 µM. In addition, in experiment [1], the “Dihydrobenzofuran or Indoline x-fold>potency biochemical” value was 3.3. In addition, the EC50 in experiment [3] (setting [5]) and in experiment [3] (setting [6]) was 1.29 µM throughout. The “Dihydrobenzofuran or Indoline x-fold>potency cellular” value in experiment [3] is listed as over 38.8.

Take `CCCNC[C@H]1Cc2c(cc(O)c(N3CC(=O)NS3(=O)=O)c2F)O1` [Compound 109, 5-{(2R)-4-fluoro-6-hydroxy-2-[(propylamino)methyl]-2,3-dihydro-1-benzofuran-5-yl}-1λ^6,2,5-thiadiazolidine-1,1,3-trione]: the 50% inhibitory concentration (IC50) in experiment [1] (enzyme 0.5 nM, substrate 2 μM) lay within 0.01 to 0.1 µM; in experiment [2] it was 0.01 to 0.1 µM. Besides, the half-maximal effective concentration (EC50) in experiment [3] (setting [5]) was 1.35 µM.

Turning to `O=C1CN(c2c(O)cc3c(c2F)C[C@H](CNCCC2CCCC2)O3)S(=O)(=O)N1` [Compound 103, 5-[(2R)-2-{[(2-cyclopentylethyl)amino]methyl}-4-fluoro-6-hydroxy-2,3-dihydro-1-benzofuran-5-yl]-1λ^6,2,5-thiadiazolidine-1,1,3-trione], the IC50 in experiment [1] (enzyme 0.5 nM, substrate 2 μM) is under 0.01 µM; in experiment [2] it was 0.01 to 0.1 µM. The EC50 in experiment [3] (setting [5]) came to 1.87 µM.

Regarding `CC(C)CN(C)C[C@H]1Cc2c(cc(O)c(N3CC(=O)NS3(=O)=O)c2F)N1` [Compound 155, 5-[(2R)-4-fluoro-6-hydroxy-2-{[methyl(2-methylpropyl)amino]methyl}-2,3-dihydro-1H-indol-5-yl]-1λ^6,2,5-thiadiazolidine-1,1,3-trione], the IC50 lay within 0.01 to 0.1 µM in experiment [1] (enzyme 0.5 nM, substrate 2 μM) and 0.01 to 0.1 µM in experiment [2]. Besides, in experiment [3] (setting [5]), the EC50 worked out at 15.7 µM.

As for `O=C1CN(c2c(O)cc3c(c2F)CC(CNCCCC(F)F)N3)S(=O)(=O)N1` (stereo not shown) [Compound 145, 5-(2-{[(4,4-difluorobutyl)amino]methyl}-4-fluoro-6-hydroxy-2,3-dihydro-1H-indol-5-yl)-1λ^6,2,5-thiadiazolidine-1,1,3-trione], the 50% inhibitory concentration (IC50) in experiment [1] (enzyme 0.5 nM, substrate 2 μM) fell in the range of 0.01 to 0.1 µM; in experiment [2], 0.01 to 0.1 µM. Also, the EC50 in experiment [3] (setting [5]) is 1.97 µM.

On to `O=C1CN(c2c(O)cc3c(c2F)C[C@H](CNCC2CCC2)N3)S(=O)(=O)N1` [Compound 137, 5-[(2R)-2-{[(cyclobutylmethyl)amino]methyl}-4-fluoro-6-hydroxy-2,3-dihydro-1H-indol-5-yl]-1λ^6,2,5-thiadiazolidine-1,1,3-trione], for which the half-inhibitory concentration (IC50) in experiment [1] (enzyme 0.5 nM, substrate 2 μM) was in the range of 0.01 to 0.1 µM; in experiment [2], 0.01 to 0.1 µM. Further, in experiment [3] (setting [5]), the 50% effective concentration (EC50) worked out at 0.904 µM.

For `CCCCNC[C@H]1Cc2c(cc(O)c(N3CC(=O)NS3(=O)=O)c2F)O1` [Compound 111, 5-{(2R)-2-[(butylamino)methyl]-4-fluoro-6-hydroxy-2,3-dihydro-1-benzofuran-5-yl}-1λ^6,2,5-thiadiazolidine-1,1,3-trione], the IC50 in experiment [1] (enzyme 0.5 nM, substrate 2 μM) lay within 0.01 to 0.1 µM; in experiment [2] it was 0.01 to 0.1 µM. Moreover, the EC50 in experiment [3] (setting [5]) was found to be 1.11 µM.

As to `CCNC[C@H]1Cc2c(cc(O)c(N3CC(=O)NS3(=O)=O)c2F)O1` [Compound 112, 5-{(2R)-2-[(ethylamino)methyl]-4-fluoro-6-hydroxy-2,3-dihydro-1-benzofuran-5-yl}-1λ^6,2,5-thiadiazolidine-1,1,3-trione], the IC50 in experiment [1] (enzyme 0.5 nM, substrate 2 μM) lay within 0.01 to 0.1 µM; in experiment [2], 0.01 to 0.1 µM. Also, in experiment [3] (setting [5]), the 50% effective concentration (EC50) is 0.776 µM.

Regarding `O=C1CN(c2c(O)cc3c(c2F)C[C@H](CNCC2CCOCC2)O3)S(=O)(=O)N1` [Compound 114, 5-[(2R)-4-fluoro-6-hydroxy-2-({[(oxan-4-yl)methyl]amino}methyl)-2,3-dihydro-1-benzofuran-5-yl]-1λ^6,2,5-thiadiazolidine-1,1,3-trione], the 50% inhibitory concentration (IC50) in experiment [1] (enzyme 0.5 nM, substrate 2 μM) lay in the range of 0.01 to 0.1 µM; in experiment [2], 0.01 to 0.1 µM. Besides, the concentration for a half-maximal effect (EC50) in experiment [3] (setting [5]) was 1.46 µM.

`O=C1CN(c2c(O)cc3c(c2F)C[C@H](CNCCC2(CO)CCCC2)O3)S(=O)(=O)N1` [Compound 122, 5-{(2R)-4-fluoro-6-hydroxy-2-[({2-[1-(hydroxymethyl)cyclopentyl]ethyl}amino)methyl]-2,3-dihydro-1-benzofuran-5-yl}-1λ^6,2,5-thiadiazolidine-1,1,3-trione]: the half-maximal inhibitory concentration (IC50) in experiment [1] (enzyme 0.5 nM, substrate 2 μM) was 0.01 to 0.1 µM; in experiment [2] it was 0.01 to 0.1 µM. Moreover, the EC50 in experiment [3] (setting [5]) turned out to be 1.98 µM.

Take `CC(C)(CO)CCNC[C@H]1Cc2c(cc(O)c(N3CC(=O)NS3(=O)=O)c2F)O1` [Compound 104, 5-[(2R)-4-fluoro-6-hydroxy-2-{[(4-hydroxy-3,3-dimethylbutyl)amino]methyl}-2,3-dihydro-1-benzofuran-5-yl]-1λ^6,2,5-thiadiazolidine-1,1,3-trione]: the concentration for half-maximal inhibition (IC50) is 0.01 to 0.1 µM in experiment [1] (enzyme 0.5 nM, substrate 2 μM) and 0.01 to 0.1 µM in experiment [2]. Besides, the EC50 in experiment [3] (setting [5]) is 5.11 µM.

`O=C1CN(c2c(O)cc3c(c2F)C[C@H](CNCCC(F)(F)F)N3)S(=O)(=O)N1` [Compound 141, 5-[(2R)-4-fluoro-6-hydroxy-2-{[(3,3,3-trifluoropropyl)amino]methyl}-2,3-dihydro-1H-indol-5-yl]-1λ^6,2,5-thiadiazolidine-1,1,3-trione]: the IC50 lay in the range of 0.01 to 0.1 µM in experiment [1] (enzyme 0.5 nM, substrate 2 μM) and 0.01 to 0.1 µM in experiment [2]. For the same compound, the 50% effective concentration (EC50) in experiment [3] (setting [5]) was 0.704 µM.

In the case of `O=C1CN(c2c(O)cc3c(c2F)C[C@H](CNCC2(CF)CC2)O3)S(=O)(=O)N1` [Compound 131, 5-{(2R)-4-fluoro-2-[({[1-(fluoromethyl)cyclopropyl]methyl}amino)methyl]-6-hydroxy-2,3-dihydro-1-benzofuran-5-yl}-1λ^6,2,5-thiadiazolidine-1,1,3-trione], the 50% inhibitory concentration (IC50) was 0.0209 µM in experiment [1] (setting [4]); 0.01 to 0.1 µM in experiment [1] (enzyme 0.5 nM, substrate 2 μM); 0.01 to 0.1 µM in experiment [2]. Moreover, the “Dihydrobenzofuran or Indoline x-fold>potency biochemical” value in experiment [1] stood at 2.4. In addition, the EC50 in experiment [3] (setting [5]) and in experiment [3] (setting [6]) was 22.1 µM throughout. The “Dihydrobenzofuran or Indoline x-fold>potency cellular” value in experiment [3] was over 2.3.

`O=C1CN(c2c(O)cc3c(c2F)CC(CNCCC2COC2)N3)S(=O)(=O)N1` (stereo not shown) [Compound 144, 5-[4-fluoro-6-hydroxy-2-({[2-(oxetan-3-yl)ethyl]amino}methyl)-2,3-dihydro-1H-indol-5-yl]-1λ^6,2,5-thiadiazolidine-1,1,3-trione]: the IC50 was 0.01 to 0.1 µM in experiment [1] (enzyme 0.5 nM, substrate 2 μM) and over 0.1 µM in experiment [2]. For the same compound, in experiment [3] (setting [5]), the EC50 was found to be 7.18 µM.

Take `O=C1CN(c2c(O)cc3c(c2F)C[C@H](CNCCC2CCOCC2)O3)S(=O)(=O)N1` [Compound 125, 5-[(2R)-4-fluoro-6-hydroxy-2-({[2-(oxan-4-yl)ethyl]amino}methyl)-2,3-dihydro-1-benzofuran-5-yl]-1λ^6,2,5-thiadiazolidine-1,1,3-trione]: the half-maximal inhibitory concentration (IC50) in experiment [1] (setting [4]) was 0.00832 µM; in experiment [1] (enzyme 0.5 nM, substrate 2 μM), under 0.01 µM; in experiment [2] it was 0.01 to 0.1 µM. In experiment [1], the “Dihydrobenzofuran or Indoline x-fold>potency biochemical” value was found to be 2.2. Besides, the half-maximal effective concentration (EC50) in experiment [3] (setting [5]) and in experiment [3] (setting [6]) was 3.09 µM each time. In experiment [3], the “Dihydrobenzofuran or Indoline x-fold>potency cellular” value was found to be 10.4.

Turning to `O=C1CN(c2c(O)cc3c(c2F)C[C@H](CNCC2CC2)N3)S(=O)(=O)N1` [Compound 147, 5-[(2R)-2-{[(cyclopropylmethyl)amino]methyl}-4-fluoro-6-hydroxy-2,3-dihydro-1H-indol-5-yl]-1λ^6,2,5-thiadiazolidine-1,1,3-trione], the IC50 lay within 0.01 to 0.1 µM in experiment [1] (enzyme 0.5 nM, substrate 2 μM) and 0.01 to 0.1 µM in experiment [2]. Also, the EC50 in experiment [3] (setting [5]) is 1.84 µM.

(Values after patent US20250019374A1, “PROTEIN TYROSINE PHOSPHATASE INHIBITORS AND METHODS OF USE THEREOF” (Calico Life Sciences LLC, priority 2021, published 2025).)
